Assay results: US20240252488A1 (KOREA RESEARCH INSTITUTE OF CHEMICAL TECHNOLOGY, priority 2020, published 2024)

Tests used:
MLKL [1] = biological target: T1, MLKL (Homo sapiens, UniProt Q8NB16); assay: MLKL degradation assay in HepG2 cell line (western blot); format: cell-based; parameters: endogenous in cells; host or cells: HepG2 or HaCaT; conditions: cell line not given; for Degradation assay (Degradation %) 1 μM: compound 1 μM; for Degradation assay (Degradation %) 10 μM: compound 10 μM
T1 sequence (Q8NB16 1-471): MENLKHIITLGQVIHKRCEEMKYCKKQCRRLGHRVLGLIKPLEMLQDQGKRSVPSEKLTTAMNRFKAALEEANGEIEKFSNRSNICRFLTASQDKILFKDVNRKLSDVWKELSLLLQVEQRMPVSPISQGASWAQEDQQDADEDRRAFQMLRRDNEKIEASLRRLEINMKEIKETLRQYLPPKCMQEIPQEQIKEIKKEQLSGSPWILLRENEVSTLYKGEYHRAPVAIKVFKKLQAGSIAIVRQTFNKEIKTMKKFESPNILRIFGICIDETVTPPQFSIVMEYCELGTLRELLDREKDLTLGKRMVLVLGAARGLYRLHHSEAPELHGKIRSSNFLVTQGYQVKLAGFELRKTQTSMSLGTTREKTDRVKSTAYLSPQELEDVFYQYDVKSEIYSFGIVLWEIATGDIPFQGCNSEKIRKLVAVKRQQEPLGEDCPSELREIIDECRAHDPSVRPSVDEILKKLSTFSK
Protocol: MLKL degradation ability was evaluated in the following method.
1 mL of Human liver cancer cell line (HepG2 cell line) or human skin cell line (HaCaT cell line) was equally distributed into each well at 2.0×10^5 cells/mL in a 12-well cell culture plate. On the next day, the medium was replaced with a medium made so that the final concentration of test compound was 1 or 10 μM (1 mL/well), and incubated in 5% CO2, at 37° C. for 20-24 hours (Thermo scientific, Forma steri-cycle).
For protein preparation after incubation, cells were washed with 1×TBST, and 60 μL of RIPA lysis buffer containing Halt™ Protease and Phosphatase Inhibitor Cocktail was dispensed into each well. After scraping the cells with a scraper, the cells were recovered, and the pallet was homogenized and reacted on ice for 30 minutes. After the cells were centrifuged at 13,000 rpm, 10 minutes, 4° C., the supernatant was transferred to a new E-tube. For protein quantification, after dispensing sample and BCA (0-4 mg/ml) in a 96 well plate, 100 μL of BCA was dispensed and reacted in a 37° C. incubator for 30 minutes. After measuring the absorbance (SpectraMax, M5e, 562 nm), the amount of the sample was adjusted with the same concentration of protein and 4× Laemmli sample buffer, DW, and reacted at 100° C. for 5 minutes.
After assembling the MP TGX Precast Gel in the Mini-PROTEAN Tetra Cell, the same protein (10-15 μg) was added in an 8-10 μL volume per well, 1×Tris-Glycine Buffer was added, and loading was performed. After loading was completed, transfer was performed using Pierce G2 Fast Blotter and Pierce 1-Step Transfer Buffer. After completion of the transfer, 10 ml of SuperBlock™ Blocking Buffer was dispensed and reacted at room temperature for 10 minutes. 5% BSA containing the primary antibody was dispensed and reacted over night at 4° C. The next day, washing was performed three times with 1×TBST at room temperature for 10 minutes. 5% BSA containing the secondary antibody was dispensed and reacted at room temperature for 1 hour. Washing was performed three times with 1×TBST at room temperature for 10 minutes. The amount of protein expression was measured using chemiluminescence (LuminoGraph, ATTO).

MLKL [2] = biological target: T1, MLKL; assay: Measurement of binding affinity with MLKL receptor (competitive binding assay, Kd); parameters: made in house; host or cells: HEK 293 cell line (T7 phage in E. coli BL21-derived host is also described)
Summary of the method: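 Competition binding of kinase tagged with DNA for qPCR detection, expressed in HEK 293 cells, against immobilized ligand on beads. Final DMSO 0.9%. Kd derived from kinase amount in eluates measured by qPCR.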

FADD−/− Jurkat cells = assay: Necroptosis inhibition assay, TNF-α-induced necroptosis (CellTiter-Glo 2.0); format: cell-based, human; conditions: TNF-α 15 ng/mL; for Necroptosis inhibition assay (Rescue %) 1 μM: compound 1 μM; for Necroptosis inhibition assay (Rescue %) 10 μM: compound 10 μM
Summary of the method: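 Compound is added to cells at final concentrations of 0.1, 1 and 10 μM and left 30 minutes at room temperature. Necroptosis is induced with 15 ng/mL TNF-α, culture continues 20 to 24 hours at 37° C, and ATP-based luminescence reports viability.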

Row | Compound | Degradation assay (Degradation %) 1 μM (MLKL [1]) [%] | Degradation assay (Degradation %) 10 μM (MLKL [1]) [%] | Kd (MLKL [2]) [nM] | Necroptosis inhibition assay (Rescue %) 1 μM (FADD−/− Jurkat cells) [%] | Necroptosis inhibition assay (Rescue %) 10 μM (FADD−/− Jurkat cells) [%] | Necroptosis inhibition assay (Rescue %) 1 μM (FADD−/− Jurkat cells; FADD−/− Jurkat cells) [%] | Necroptosis inhibition assay (Rescue %) 10 μM (FADD−/− Jurkat cells; FADD−/− Jurkat cells) [%] | Necroptosis inhibition assay (Rescue %) 1.1 μM (FADD−/− Jurkat cells; compound 1.1 µM)
1 | Nc1ncc(-c2cnn(C3CCN(C(=O)C4CCN(C(=O)COc5cccc6c5C(=O)N(C5CCC(=O)NC5=O)C6=O)CC4)CC3)c2)nc1C(=O)OC(C(=O)Nc1ccc(F)cc1)c1ccccc1 (stereo not drawn) [TDH-277, 2-((4-fluorophenyl)amino)-2-oxo-1-phenylethyl 3-amino-6-(1-(1-(1-(2-((2-(2,6-dioxopiperidin-3-yl)-1,3-dioxoisoindolin-4-yl)oxy)acetyl)piperidine-4-carbonyl)piperidin-4-yl)-1H-pyrazol-4-yl)pyrazine-2-carboxylate] | 40.52 | 53.39 | 1.5 | 43.59 | 13.88 |  |  | 
2 | Nc1ncc(-c2cnn(C3CCN(CCCN4CCN(C(=O)CCc5ccc6c(c5)C(=O)N(C5CCC(=O)NC5=O)C6=O)CC4)CC3)c2)nc1C(=O)O[C@@H](C(=O)Nc1ccc(F)cc1)c1ccccc1 (stereo partly drawn) [TDH-383, (R)-2-((4-fluorophenyl)amino)-2-oxo-1-phenylethyl 3-amino-6-(1-(1-(3-(4-(3-(2-(2,6-dioxopiperidin-3-yl)-1,3-dioxoisoindolin-5-yl)propanoyl)piperazin-1-yl)propyl)piperidin-4-yl)-1H-pyrazol-4-yl)pyrazine-2-carboxylate] | 79.04 | 81.95 | 0.42 | 46.33 | 25.19 |  |  | 
3 | Nc1ncc(-c2cnn(C3CCN(CC4CCN(CCC5CCN(c6cc7c(cc6F)C(=O)N(C6CCC(=O)NC6=O)C7=O)CC5)CC4)CC3)c2)nc1C(=O)O[C@@H](C(=O)Nc1ccc(F)cc1)c1ccccc1 (stereo partly drawn) [TDH-513, (R)-2-((4-fluorophenyl)amino)-2-oxo-1-phenylethyl 3-amino-6-(1-(1-((1-(2-(1-(2-(2,6-dioxopiperidin-3-yl)-6-fluoro-1,3-dioxoisoindolin-5-yl)piperidin-4-yl)ethyl)piperidin-4-yl)methyl)piperidin-4-yl)-1H-pyrazol-4-yl)pyrazine-2-carboxylate] | 46.49 | 75.71 | 3.9 |  |  | 14.47 | −61.68 | 
4 | Nc1ncc(-c2cnn(C3CCN(CCOC4CCN(C(=O)COc5ccc6nnn(C7CCC(=O)NC7=O)c(=O)c6c5)CC4)CC3)c2)nc1C(=O)O[C@@H](C(=O)Nc1ccc(F)cc1)c1ccccc1 (stereo partly drawn) [TDH-373, (R)-2-((4-fluorophenyl)amino)-2-oxo-1-phenylethyl 3-amino-6-(1-(1-(2-((1-(2-((3-(2,6-dioxopiperidin-3-yl)-4-oxo-3,4-dihydrobenzo[d][1,2,3]triazin-6-yl)oxy)acetyl)piperidin-4-yl)oxy)ethyl)piperidin-4-yl)-1H-pyrazol-4-yl)pyrazine-2-carboxylate] | 87.78 | 86.6 | 1.4 | 62.68 | 40.09 |  |  | 
5 | Nc1ncc(-c2cnn(C3CCN(CC4CN(C(=O)COc5ccc6c(c5)C(=O)N(C5CCC(=O)NC5=O)C6=O)CCO4)CC3)c2)nc1C(=O)O[C@@H](C(=O)Nc1ccc(F)cc1)c1ccccc1 (stereo partly drawn) [TDH-390, (R)-2-((4-fluorophenyl)amino)-2-oxo-1-phenylethyl 3-amino-6-(1-(1-((4-(2-((2-(2,6-dioxopiperidin-3-yl)-1,3-dioxoisoindolin-5-yl)oxy)acetyl)morpholin-2-yl)methyl)piperidin-4-yl)-1H-pyrazol-4-yl)pyrazine-2-carboxylate] | 80.07 | 93.00 | 2.6 | 46.50 | 36.13 |  |  | 
6 | Nc1ncc(-c2cnn(C3CCN(CCC4CCN(C(=O)COc5ccc6nnn(C7CCC(=O)NC7=O)c(=O)c6c5)CC4)CC3)c2)nc1C(=O)O[C@@H](C(=O)Nc1ccc(F)cc1)c1ccccc1 (stereo partly drawn) [TDH-330, (R)-2-((4-fluorophenyl)amino)-2-oxo-1-phenylethyl 3-amino-6-(1-(1-(2-(1-(2-((3-(2,6-dioxopiperidin-3-yl)-4-oxo-3,4-dihydrobenzo[d][1,2,3]triazin-6-yl)oxy)acetyl)piperidin-4-yl)ethyl)piperidin-4-yl)-1H-pyrazol-4-yl)pyrazine-2-carboxylate] | 59.64 | 49.16 | 0.65 |  | 51.95 |  |  | 54.05 (1.1µM) %
7 | Nc1ncc(-c2cnn(C3CCN(C[C@H]4CC[C@H](CNC(=O)COc5cccc6c5C(=O)N(C5CCC(=O)NC5=O)C6=O)CC4)CC3)c2)nc1C(=O)O[C@@H](C(=O)Nc1ccc(F)cc1)c1ccccc1 (stereo partly drawn) [TDH-345, (R)-2-((4-fluorophenyl)amino)-2-oxo-1-phenylethyl 3-amino-6-(1-(1-(((1r,4r)-4-((2-((2-(2,6-dioxopiperidin-3-yl)-1,3-dioxoisoindolin-4-yl)oxy)acetamido)methyl)cyclohexyl)methyl)piperidin-4-yl)-1H-pyrazol-4-yl)pyrazine-2-carboxylate] | 87.91 | 80.66 | 1.5 | 29.41 | 19.45 |  |  | 
8 | Nc1ncc(-c2cnn(C3CCN(C(=O)CCC4CCN(C(=O)CCc5ccc6c(c5)C(=O)N(C5CCC(=O)NC5=O)C6=O)CC4)CC3)c2)nc1C(=O)O[C@@H](C(=O)Nc1ccc(F)cc1)c1ccccc1 (stereo partly drawn) [TDH-432, (R)-2-((4-fluorophenyl)amino)-2-oxo-1-phenylethyl 3-amino-6-(1-(1-(3-(1-(3-(2-(2,6-dioxopiperidin-3-yl)-1,3-dioxoisoindolin-5-yl)propanoyl)piperidin-4-yl)propanoyl)piperidin-4-yl)-1H-pyrazol-4-yl)pyrazine-2-carboxylate] | 89.17 | 73.05 | 0.9 |  |  | 12.47 | 0.07 | 
9 | Nc1ncc(-c2cnn(C3CCN(CCOC4CCN(C(=O)c5ccc6c(N7CCC(=O)NC7=O)coc6c5)CC4)CC3)c2)nc1C(=O)O[C@@H](C(=O)Nc1ccc(F)cc1)c1ccccc1 [TDH-554, (R)-2-((4-fluorophenyl)amino)-2-oxo-1-phenylethyl 3-amino-6-(1-(1-(2-((1-(3-(2,4-dioxotetrahydropyrimidin-1(2H)-yl)benzofuran-6-carbonyl)piperidin-4-yl)oxy)ethyl)piperidin-4-yl)-1H-pyrazol-4-yl)pyrazine-2-carboxylate] | 83.95 | 70.50 | 0.43 |  |  | 39.53 | 14.16 | 
